Legend:
recombinant human GSK3α = recombinant human GSK3α (Homo sapiens, UniProt P49840); experiment: In vitro enzymatic assay for inhibition of GSK3α (Kinase-Glo Max luminescence); type: biochemical; conditions: 10 uM ATP, 0.1 mg/ml GSKtide, 30° C. 40 minutes, read-out: Potency Alpha
Description: (§1) Enzymatic activities using recombinant human GSK3 using an in vitro enzymatic assay for inhibition GSK3α and GSK3β.
(§2) The assay was performed using Kinase-Glo Max luminescence kinase assay kit (Promega). It measures kinase activity by quantitating the amount of ATP remaining in solution following a kinase reaction. The luminescent signal from the assay is correlated with the amount of ATP present and is inversely correlated with the amount of kinase activity. The compounds were diluted in 10% DMSO and 5 μl of the dilution was added to a 50 μl reaction so that the final concentration of DMSO is 1% in all of reactions. The enzymatic reactions were conducted at 30° C. for 40 minutes. The 50 μl reaction mixture contains 40 mM Tris, pH 7.4, 10 mM MgCl2, 0.1 mg/ml BSA, 2 mM DTT, 0.1 mg/ml GSKtide substrate, 10 uM ATP and GSK3. After the enzymatic reaction, 50 μl of Kinase-Glo Max Luminescence kinase assay solution (Promega) was added to each reaction and incubate the plate for 15 minutes at room temperature. Luminescence signal was measured using a BioTek Synergy 2 microplate reader.
(§3) Kinase activity assays were performed in duplicate at each concentration. The luminescence data were analyzed using the computer software, Graphpad Prism. The difference between luminescence intensities in the absence of Kinase (Lut) and in the presence of Kinase (Luc) was defined as 100% activity (Lut−Luc). Using luminescence signal (Lu) in the presence of the compound, % activity was calculated as: % activity={(Lut−Lu)/(Lut−Luc)}×100%, where Lu=the luminescence intensity in the presence of the compound (all percent activities below zero were shown zero in the table).
(§4) The values of % activity versus a series of compound concentrations were then plotted using non-linear regression analysis of Sigmoidal dose-response curve generated with the equation Y=B+(T−B)/1+10((Log EC50−X)×Hill Slope), where Y=percent activity, B=minimum percent activity, T=maximum percent activity, X=logarithm of compound and Hill Slope=slope factor or Hill coefficient. The IC50 value was determined by the concentration causing a half-maximal percent activity.

recombinant human GSK3β = recombinant human GSK3β (Homo sapiens, UniProt P49841); experiment: In vitro enzymatic assay for inhibition of GSK3β (Kinase-Glo Max luminescence); type: biochemical; conditions: 10 uM ATP, 0.1 mg/ml GSKtide, 30° C. 40 minutes, read-out: Potency Beta
Chain of recombinant human GSK3β (P49841 whole entry): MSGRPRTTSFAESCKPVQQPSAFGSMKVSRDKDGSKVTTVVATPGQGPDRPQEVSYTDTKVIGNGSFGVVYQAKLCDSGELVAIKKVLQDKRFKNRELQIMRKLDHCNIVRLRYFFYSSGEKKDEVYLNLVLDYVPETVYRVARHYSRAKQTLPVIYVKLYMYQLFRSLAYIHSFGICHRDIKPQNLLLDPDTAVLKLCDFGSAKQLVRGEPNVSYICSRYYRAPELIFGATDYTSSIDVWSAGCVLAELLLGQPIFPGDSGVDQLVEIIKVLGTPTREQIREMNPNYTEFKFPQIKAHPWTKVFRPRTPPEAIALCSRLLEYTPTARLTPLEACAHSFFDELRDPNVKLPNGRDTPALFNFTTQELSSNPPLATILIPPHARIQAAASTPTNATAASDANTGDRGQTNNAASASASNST
Description: as §1, §2, §3, §4

Lgr5-positive cells = experiment: Expansion of Lgr5-positive cells (cochlear stem cell expansion, 3D Matrigel culture, flow cytometry for Lgr5-GFP); type: cell-based, mouse; conditions: for EC50: Mus musculus, 240 h, Lgr5-positive cell expansion, cochlear cells of neonatal Lgr5-EGFP-IRES-Cre-ER mice, 10 days in culture, read-out: Potency; for % of Cells: percentage of Lgr5-GFP-positive cells after 10 days (D10) in culture, flow cytometer
Description: Lgr5-EGFP-IRES-Cre-ER mice (Barker et al., 2007) (http://jaxmice.jax.org/strain/008875.html) are used to analyze the effects of small molecules on cochlear stem cell expansion.
Isolation of stem cells from the inner ear: All animal studies are conducted under an approved institutional protocol according to National Institutes of Health guidelines. For experiments with neonatal mice (postnatal days 1-3), the cochleae are dissected in HBSS and the organ of Corti are separated from the stria vascularis and the modiolus. The organs of Corti are then treated with Cell Recovery Solution (Corning) for 1 h to separate cochlear epithelium from the underlying mesenchyme. Epithelia are then collected and treated with TrypLE (Life Technologies) for 15-20 minutes at 37° C. Single cells obtained by mechanical trituration are filtered (40 μm) and suspended in Matrigel (Corning) for 3D culture.
Cells are cultured in a 1:1 mixture of DMEM and F12, supplemented with Glutamax (GIBCO), N2, B27 (Invitrogen), EGF (50 ng/ml; Chemicon), bFGF (50 ng/ml; Chemicon), IGF1 (50 ng/ml; Chemicon) and the composition provided herein. Media are changed every other day.
Lgr5-positive cells are quantified after 10 days (D10) in culture in multiple conditions. Cell colonies are dissociated into single cells using TrypLE (Gibco). The cells are then stained with propidium iodide (PI) and are analyzed using a flow cytometer for Lgr5-GFP expression. The number of GFP-positive cells and the percentage of GFP-positive cells are quantified.

Chain of recombinant human GSK3α (P49840 whole entry): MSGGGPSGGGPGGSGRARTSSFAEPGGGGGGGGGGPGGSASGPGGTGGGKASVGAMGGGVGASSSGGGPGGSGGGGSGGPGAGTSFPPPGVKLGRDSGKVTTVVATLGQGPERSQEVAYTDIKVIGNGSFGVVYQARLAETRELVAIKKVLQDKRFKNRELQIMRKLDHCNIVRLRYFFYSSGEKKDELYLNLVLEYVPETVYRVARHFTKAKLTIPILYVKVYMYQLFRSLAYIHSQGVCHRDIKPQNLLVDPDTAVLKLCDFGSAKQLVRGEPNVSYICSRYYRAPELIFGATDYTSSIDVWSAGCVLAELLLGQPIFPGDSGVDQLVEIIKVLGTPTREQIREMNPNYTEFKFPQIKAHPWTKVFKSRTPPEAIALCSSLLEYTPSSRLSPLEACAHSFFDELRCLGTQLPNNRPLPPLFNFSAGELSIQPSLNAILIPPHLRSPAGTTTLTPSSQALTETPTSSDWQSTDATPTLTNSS

Structure (SMILES)	IC50 (recombinant human GSK3α) [nM]	IC50 (recombinant human GSK3β) [nM]	EC50 (Lgr5-positive cells) [nM]	% of Cells (Lgr5-positive cells)
NC1CCN(C(=O)N2CCn3cc(C4=C(c5cnc6ccccn56)C(=O)NC4=O)c4cc(F)cc(c43)C2)CC1 [Compound I-34]	1 to 10	1 to 10	> 1000	++ (“++” indicates about 6-10%)
O=C1NC(=O)C(c2cnc3ccccn23)=C1c1cn2c3c(cc(C(F)(F)F)cc13)CN(C(=O)N1CCOCC(F)(F)C1)CC2 [Compound I-44]	1 to 10	1 to 10	100 to 1000	+++ (“+++” indicates greater than about 11%)
N#Cc1cc2c3c(c1)c(C1=C(c4cnc5ccccn45)C(=O)NC1=O)cn3CCN(C(=O)N1CCCC(F)(F)C1)C2 [Compound I-15]	1 to 10	1 to 10	> 1000	++ (“++” indicates about 6-10%)
O=C1NC(=O)C(c2cnc3ccccn23)=C1c1cn2c3c(cc(F)cc13)CN(C(=O)N1CC(F)(F)C(F)(F)C(F)(F)C1)CC2 [Compound I-22]	1 to 10	1 to 10	1 to 100	++ (“++” indicates about 6-10%)
NCC1CCN(C(=O)N2CCn3cc(C4=C(c5cnc6ccccn56)C(=O)NC4=O)c4cc(F)cc(c43)C2)CC1 [Compound I-19]	1 to 10	1 to 10	> 1000	+++ (“+++” indicates greater than about 11%)
N#Cc1cc2c3c(c1)c(C1=C(c4cnc5ccccn45)C(=O)NC1=O)cn3CCN(C(=O)N1CC3CCC(C1)O3)C2 [Compound I-14]	1 to 10	1 to 10	> 1000	+ (“+” indicates about 0-5%)

Second part, led by results:

IC50 (recombinant human GSK3α) [nM]	IC50 (recombinant human GSK3β) [nM]	EC50 (Lgr5-positive cells) [nM]	Structure (SMILES)	% of Cells (Lgr5-positive cells)
1 to 10	1 to 10	> 1000	CN1CC2CC1CN2C(=O)N1CCn2cc(C3=C(c4cnc5ccccn45)C(=O)NC3=O)c3cc(F)cc(c32)C1 (stereo not drawn) [Compound I-40]	+ (“+” indicates about 0-5%)
1 to 10	1 to 10	1 to 100	C#Cc1cc2c3c(c1)c(C1=C(c4cnc5ccccn45)C(=O)NC1=O)cn3CCN(C(=O)N1CCCCC1)C2 [Compound I-3]	+++ (“+++” indicates greater than about 11%)
1 to 10	1 to 10	1 to 100	O=C1NC(=O)C(c2cnc3ccccn23)=C1c1cn2c3c(cc(F)cc13)CN(C(=O)N1CCOCC(F)(F)C1)CC2 [Compound I-27]	+++ (“+++” indicates greater than about 11%)
1 to 10	1 to 10	1 to 100	O=C1NC(=O)C(c2cnc3ccccn23)=C1c1cn2c3c(cc(F)cc13)CN(C(=O)N1CCC(CO)CC1)CC2 [Compound I-6]	+++ (“+++” indicates greater than about 11%)
1 to 10	1 to 10	> 1000	CC(=O)Nc1cc2c3c(c1)c(C1=C(c4cnc5ccccn45)C(=O)NC1=O)cn3CCN(C(=O)N1CCCCC1)C2 [Compound I-10]	+ (“+” indicates about 0-5%)
1 to 10	1 to 10	1 to 100	N#Cc1cc2c3c(c1)c(C1=C(c4cnc5ccccn45)C(=O)NC1=O)cn3CCN(C(=O)N1CCCCC1)C2 [Compound I-2]	+++ (“+++” indicates greater than about 11%)
